Assay results: US20140348966A1, “GARCINIA BUCHANANII BAKER COMPOUNDS, COMPOSITIONS AND RELATED METHODS” (priority 2011, published 2014)
Where “and” joins values, the source holds several entries; their conditions need not be identical. Equal entries are not always repeated. Structures can show the parent of a compound that is named as a salt.

How the values were obtained:
[1] = hydrogen peroxide scavenging assay; assay type: biochemical; conditions: isolated and reference compounds; read-out: H2O2 assay EC50
Experimental: Hydrogen peroxide scavenging assay was performed in accordance with the method of Ichikawa, M. and colleagues (2002). Sample solutions at appropriate concentration were prepared using phosphate buffer (100 mM, pH 6.0). Sample solution ([…]), phosphate buffer (30 mL, 100 mM, pH 6.0), and hydrogen peroxide solution (10 mL, 500 mM) were mixed in 96-well clear microplate (VWR, Ismaning, Germany). Then peroxidase (40 mL, 150 U/mL) and ABTS (40 mL, 0.1%) were added. The microplate was incubated at 37° C. for 15 min. The absorbance (A) of each well was measured at 414 nm with FLUOstar OPTIMA (BMG LABTECH, Offenburg, Germany). […] After freeze-drying three times 1 MPLC fractions M1-M8 were analyzed in natural concentrations.
E=[(A−Ablank)control−(A−Ablank)test]/(A−Ablank)control·100

[2] = oxygen radical absorbance capacity (ORAC) assay; assay type: biochemical; conditions: isolated and reference compounds
Experimental: ORAC assay was carried out according to the method of Ou, G. and colleagues (1993) with some modifications. Trolox and FL were used as a standard and a fluorescent probe respectively. Free radicals were produced by AAPH to oxidize FL. Different dilutions of Trolox ([…]) and appropriate dilutions of tested sample were prepared with phosphate buffer (10 mM, pH 7.4). Trolox dilution ([…]) or sample solution were pipetted into a well of 96-well black microplate (VWR) and then FL (150 mL, 10 nM) was added. The reaction mixture was incubated at 37° C. for 30 min Afterward s, fluorescence was measured every 90 sec at the excitation of 485 nm and the emission of 520 nm using FLUOstar OPTIMA. After 3 cycles, AAPH ([…], 240 mM) was added quickly, and then the measurement was resumed and continued up to 90 min (60 cycles in total). The background signal was determined using the first 3 cycles. The ORAC values were calculated according to the method of Ou, G. and colleagues (1993) and expressed as Trolox equivalent (mmol TE/mmol). After freeze-drying in triplicate, MPLC fractions M1-M8 were analyzed in natural concentrations.

guinea pig distal colon = assay: fecal pellet propulsion motility assay in isolated distal colon (GIMM)
Experimental: Gastrointestinal Motility Assays: Segments (˜10 cm long) of distal colon were pinned on either end in a Sylgard-lined 50 mL organ bath, continuously perfused with oxygenated Krebs solution (rate: 10 mL min^−1) and maintained at temperatures between 36 and 37° C. Tissues were initially allowed to equilibrate for 30 mins in re-circulating Krebs solution. Colonic motility was studied using the Gastronintestinal Motility Monitoring system (GIMM; Med-Associates Inc., Saint Albans, Vt., USA), which included a digital video camera (Catamount Research and Development Inc, St Albans, Vt., USA) to film fecal pellet propulsion. Trials were separated by 5-min recovery periods between successive pellet runs. The GIMM system software calculated velocities by tracking pellets as they traversed colon segments. After initial equilibration, five pellet propulsion trials in vehicle solution were obtained to determine the basal velocity for each tissue preparation. To reduce variations between runs and experiments, the values obtained were used to generate a normalized basal velocity by dividing the values of the 4th-5th runs by the value of the 1st-2nd runs. Garcinia buchananii stem bark extract and test compounds dissolved in 100 mL of Krebs solution were superfused either into the organ bath or into the lumen of the colon using polyethylene tubing [PE 205; outside diameter 9.5 mm (BD-Worldwide, Sparks, Md., USA)]. The effects of extract and test compounds were evaluated by obtaining velocities of four trials taken at 5-min intervals (5-20 min) Normalized velocity data for these treatments were obtained by dividing the test velocities acquired by the average velocity of the five pellet propulsion runs performed in vehicle solution (runs 1-5, above). Normalized data became ratios without units, and were presented as a percent velocity of basal activity for each tissue. Velocities of pellet propulsion were also studied during washout of tissue with Krebs solution (after extract or test compound application) for 20 min
A segment (˜10-12 cm long) of distal colon was pinned on either end in a Sylgard-lined 50 mL organ bath being continuously perfused with oxygenated Krebs solution (rate: 10 mL min^−1) and maintained at temperatures between 36-37° C. Nail-polish-coated guinea-pig pellets similar in shape and size to the “native” colonic fecal pellets were used to determine propulsive velocities using the Gastrointestinal Motility Monitoring system (Med-Associates Inc., Saint Albans, Vt., USA) for filming pellet propulsion as described by Hoffman and others (2010). Velocity was calculated based on the time required for pellets to traverse 5-6 cm of the central colon segment ending 1 cm from the aboral end. Data collection started after 30 minutes of equilibration. A five-minute interval was used to allow equilibration of motor activity between successive pellet runs. Baseline velocities were measured for 20 minutes.
In intraluminal studies, the aqueous extract was prepared by suspending 2 g of G. buchananii bark powder in 100 mL Krebs, whereas 1 g G. buchananii bark powder prepared in the same manner was used for bath (serosal) applications. The extract-Krebs mixture was continuously stirred for 30 minutes and filtered using analytical filter paper (Schleicher and Schuell Blue Ribbon filter paper 589/3; 0.2 μm retention). Garcinia buchananii extract and test compounds were delivered to isolated colons in Krebs solution, and evaluated for effects on pellet propulsion during 20-25 minute time intervals. Intraluminal drug deliveries (350 μL min^−1 Krebs solution) were performed using polyethylene tubing (PE 205; outside diameter 9.5 mm) inserted ˜1.5 cm into the oral end of the segments. In bath deliveries, G. buchananii extract and test compounds were superfused directly into the organ bath. Studies involving PTLC fractions were performed using the organ bath delivery method only.

[3] = test system: Wistar rats with high-lactose diet-induced diarrhea; assay: high-lactose diet (HLD) induced diarrhea in rats; assay type: in vivo
Experimental: A high-lactose (35%) diet induced diarrhea in Wistar rats, which were then treated with either G. buchananii bark extract (0.1, 0.5, 1.0 and 5.0 g bark powder) or its anti-motility fractions isolated using preparative thin layer chromatography; termed PTLC1 (15 mg) and PTLC5 (3.8 mg) or loperamide (8.4 mg), each dissolved in 1 liter of tap water. Numerous parameters were measured in each condition including consistency, fluid and mucus content of feces, body weight, water and food consumption, urine production and bloating.
The study was conducted in accordance with the regulations of the University of Idaho Institutional Animal Care and Use Committee (IACUC). Sixty two, 10 week old Wistar rats were obtained from Harlan Animal Research Laboratory (Hayward Calif., USA). Rats were individually caged (23-24° C.; 12:12 h light-dark cycle) and quarantined for one week. Rats were fed a standard chow diet ad libitum (Animal Specialties, Hubbard, Oreg., USA) and had free access to water for four days prior to the inducement of diarrhea. A high-lactose diet (HLD) containing 35% lactose in place of starch (3.004 Kcal; Purina Mills; Richmond, Ind., USA) was fed to 52 rats. Diarrhea was induced within 24-48 hours after consuming the diet. Rats were monitored for changes in consistency of pellets and stool mass, fecal fluid and urine production (mass; g and volume; ml). Rats were considered diarrheic if they produced watery stools, soft, yellowish stools compared to normal, pliable, soft, well-formed pellets as previously described by other researchers.
Four days after introducing rats to a HLD, diarrheic rats were treated using varying doses of G. buchananii extract, its anti-motility fractions isolated using preparative thin layer chromatoghraphy (PTLC1 & PTLC5) and loperamide for standard comparison. Rats were maintained on a HLD during the entire treatment period.
Garcinia buchananii bark powder was prepared from stem barks collected from trees in their natural habitat in Karagwe, Tanzania, as described previously by Balemba, OB and colleagues, 2010. A sample can be found at the University of Idaho Stillinger herbarium (voucher #159918). 0.1 g, 0.5 g, 1.0 g and 5.0 g of G. buchananii bark powder were each suspended in 1 L of tap water, stirred for 30 minutes and filtered. The filtrate was then immediately used to treat rats against lactose-induced diarrhea.
Twenty nine rats on a HLD were randomly assigned and treated with varying doses of G. buchananii extract (0.1 g, 0.5 g, 1 g, and 5 g extract; n=6-10 rats per group). Eight rats were treated with PTLC1 or PTLC5 (each n=4) at a dose of 15 mg and 3.8 mg in 100 mL tap water, respectively. For control treatments, seven rats were treated with loperamide (8.4 mg/L tap water), eight rats were left untreated (HLD control) and ten rats received control standard chow diets (SD). Rats were treated for a total of four days, receiving freshly made drugs every two days.
We studied the impact of a HLD and all the treatments on the consistency, form and appearance of feces. Body weight, food and water intake were measured every two days for the entire period. Diarrheic rats treated with G. buchananii (0.1 g/l, 1.0 g/l) and loperamide were used to study fecal fluid content, stool mass and urine production compared with untreated rats on a HLD and SD control diets (n=3-5). To achieve this, pellets/stools and urine were allowed to drop on non-leaking, polyester plastic mats spread in metal trays placed beneath wired cages housing rats. Pellets/stools and urine were collected every three hours, for 24 hours, for a 12-day period. Disposable polyethylene transfer pipettes (5.5 mL) were used to collect urine. Pellets/stools were collected by using custom-made pieces of Inkjet transparencies. The samples were stored in disposable, polypropylene containers (100 mL) tightly capped to avoid loss of moisture due to vaporization. […]

[4] = bath (serosal) application, 20 min, extract 1 g/100 mL Krebs, PTLC1 15 mg, PTLC5 3.8 mg/100 mL, RS-56812 50 nmol/L, cisapride 100 nmol/L, CJ-033466 300 nmol/L, granisetron 1 μmol/L, ondansetron 0.5 μmol/L, GR-113808 5 μmol/L
[5] = intraluminal delivery, 5 min, extract 2 g bark powder/100 mL Krebs, 5-HT 0.5 μmol/L, RS-56812 50 nmol/L, cisapride 100 nmol/L, CJ-033466 300 nmol/L, GR-113808 5 μM
[6] = intraluminal delivery, 15 min, extract 2 g bark powder/100 mL Krebs, drug concentrations as at 5 min
[7] = intraluminal delivery, 20 min, extract 2 g bark powder/100 mL Krebs, drug concentrations as at 5 min
[8] = HLD rats, PTLC1 15 mg, PTLC5 3.8 mg in 100 mL tap water, loperamide 8.4 mg/L, after 24 hrs to the 4th day
[9] = HLD rats, loperamide 8.4 mg/L, PTLC1 15 mg/100 mL, PTLC5 3.8 mg/100 mL

Compound | pellet propulsion, percent of normalized baseline pellet velocity (guinea pig distal colon; [4]) | pellet propulsion, percent of normalized baseline pellet velocity (guinea pig distal colon; [5]) [%] | pellet propulsion, percent of normalized baseline pellet velocity (guinea pig distal colon; [6]) [%] | pellet propulsion, percent of normalized baseline pellet velocity (guinea pig distal colon; [7]) [%] | other results
O=C1CC(c2ccc(O)cc2)Oc2cc(O)cc(O)c21 (racemic) [(±)-naringenin] |  |  |  |  | EC50 [1]: 8.6 µM; ORAC assay [2]: 3.96 μmol TE/μmol
Cc1cn2c(N)c(Cl)cc(C(=O)NCC3CCN(CC(C)C)CC3)c2n1 [CJ-033466] | 102.8±6.5% | 132.7 ± 7.1 | 112.1 ± 6.7 | 116.6 ± 5.6 | 
NCCc1c[nH]c2ccc(O)cc12 [Compound 5-HT, Serotonin hydrochloride] |  | 118.3 ± 16.2 | 117.6 ± 13.5 | 114.3 ± 11.9 | 
Cn1cc(C(=O)OCC2CCN(CCNS(C)(=O)=O)CC2)c2ccccc21 [GR-113808] | did not alter pellet propulsion | 109.3 ± 6.1 | 93.2 ± 3.6 | 91.7 ± 3.1 | inhibition of pellet propulsion (guinea pig distal colon; intraluminal, after 20 minutes, extract 2 g/100 mL Krebs, granisetron 2 μM, GR-113808 5 μM): 10%
Cn1cc(C(=O)C(=O)NC2CN3CCC2CC3)c2ccccc21 (stereo not shown) [RS-56812] | 103.3±4.7% | 119.7 ± 5.2 | 119.6 ± 5.4 | 126.7 ± 9.2 | 
COc1cc(N)c(Cl)cc1C(=O)NC1CCN(CCCOc2ccc(F)cc2)CC1OC (stereo not shown) [cisapride, Cisapride] | 85.0±5.5% and 85.0±5.9% | 115.6 ± 4.9 | 109.6 ± 9.3 | 122.0 ± 8.2 | inhibition of pellet propulsion (guinea pig distal colon; serosal (bath) application, 20 min, extract 1 g, PTLC1 15 mg, PTLC5 3.8 mg per 100 mL Krebs, cisapride 100 nmol/L, RS-56812 50 nmol/L): 15%
CN1C2CCCC1CC(NC(=O)c1nn(C)c3ccccc13)C2.Cl (stereo not shown) [granisetron, granisetron hydrochloride] | 101.4±7.0% | 99.3 ± 4.2 | 92.4 ± 1.4 | 86.5 ± 3.6 | 
CN(C)C(=O)C(CCN1CCC(O)(c2ccc(Cl)cc2)CC1)(c1ccccc1)c1ccccc1 [loperamide] |  |  |  |  | intestinal bloating / cecum distension ([3]; HLD rats, all doses): reduced cecum distension; cecum maximum diameter ([3]; HLD rats, loperamide 8.4 mg/L): 2.0+/−0.2 cm; fecal fluid content ([3]; HLD rats, loperamide 8.4 mg/L): 43.8±6.5%; Form of stool: Hardened normal pellets [3, 8]: ++++++; Form of stool: Loose stool with structural form of pellet [3, 8]: −; Form of stool: Loose stools + mucous (non-structural stool) [3, 8]: −; Form of stool: Soft formed pellets [3, 8]: −; Form of stool: Watery diarrhea + mucous (incontinence or profuse) [3, 8]: −; body weight change [3, 9]: -1.33 ± 0.64 g; food consumption [3, 9]: 28.50 ± 3.58 g; water (fluid) consumption [3, 9]: 43.96 ± 7.66 mL; reversal of weight loss versus untreated HLD rats ([3]; loperamide 8.4 mg/L, not significant): 1.78 g
Cc1nccn1CC1CCc2c(c3ccccc3n2C)C1=O (stereo not shown) [ondansetron, ondansetron hydrochloride] | 111.3±9.8% |  |  |  | 
